Key:
Type in all cases: physicochemical
[1] = Transformation by pressing (crystal form before and after pressing); conditions: for Crystal Form after pressing: 100 mg pressed with approximately 1300 psi during 2 minutes
[2] = Transformation by heating and slurry in acetone-water mixture (20:80), form determined by XRD
Experimental: A sample of zolmitriptan (6 g) was placed in a glass flask with solvent and heated to reflux until the zolmitriptan dissolved. The zolmitriptan was cooled to room temperature while stirring, and left at 4° C. overnight. The mixture was filtered and the solid obtained was divided in half. One half of the solid was labeled “wet” and the other half was dried in a vacuum oven at about 60° C.-70° C. overnight and labeled as “dried.”
One third of the wet portion of each sample was separated for XRD, and marked as “_w” . One third of the dried portion of each sample was separated for XRD, and marked as “_d” . For example, “1w” refers to the wet portion of sample 1 analyzed by XRD before slurry in acetone/water, and “1d” refers to the dried portion of sample 1 analyzed by XRD before slurry in acetone/water.
The remaining two-thirds of the wet sample was weighed, placed in a glass flask containing 10 v/w of acetone:water (20:80), stirred for about 30 minutes at room temperature, and left at about 4° C. overnight. The mixture was filtered and the solid obtained was divided in half. One half was labeled “_w-ac-w.” The other half was dried in a vacuum oven at about 60° C.-70° C. overnight, and labeled “_w-ac-d.” For example, “1w-ac-w” refers to the portion of the wet sample resulting from slurry in acetone/water, while “1w-ac-d” refers to the portion of the wet sample resulting from slurry in acetone/water that was dried.
Likewise, the remaining two-thirds of the dry sample was weighed, placed in a glass flask containing 10 v/w of acetone:water (20:80), stirred for about 30 minutes at room temperature, and left at about 4° C. overnight. The mixture was filtered and the solid obtained was divided in half. One half was labeled “_d-ac-w.” The other half was dried in a vacuum oven at about 60° C.-70° C. overnight, and labeled “_d-ac-d.” For example, “1d-ac-w” refers to the portion of the dry sample resulting from slurry in acetone/water, while “1d-ac-d” refers to the portion of the dry sample resulting from slurry in acetone/water that was then dried.

[3] = Polymorphic stability when maintained at room temperature
[4] = Transformation of zolmitriptan crystal forms by heating in a conventional oven, form determined by XRD; conditions: about 1.5 to 2 hours, conventional oven, XRD
Experimental: Zolmitriptan (0.5 g) crystalline forms were heated in a conventional oven for a period of about 1.5 to 2 hours at different temperatures. The crystal form of the samples was determined by XRD before and after heating.

[5] = Transformation by slurry in other solvents (n-hexane, toluene, water) and drying, form determined by XRD
From the text: Similarly to example 6 Zolmitriptan samples were slurried from other solvents or solvent systems after dissolution and precipitation from a specific solvent.

[6] = Toluene, dried 63 °C under reduced pressure
[7] = Water, dried 63 °C under reduced pressure
[8] = immersed in 10 v/w Toluene, filtered, sucked ½ hour on Buchner
[9] = immersed in 10 v/w Water, filtered, sucked ½ hour on Buchner
[10] = immersed in 10 v/w n-Hexane, filtered, sucked ½ hour on Buchner
[11] = n-Hexane, dried 63 °C under reduced pressure

CN(C)CCc1c[nH]c2ccc(C[C@H]3COC(=O)N3)cc12 [Form F]
Crystal Form after pressing [1]: Form F
transformation to other crystal form on pressing [1]: not transform to other crystal form

CN(C)CCc1c[nH]c2ccc(C[C@H]3COC(=O)N3)cc12 [Sample 4]
Resulting Crystal Form ([2]; _w-ac-w: wet sample slurried in 10 v/w acetone:water (20:80), 30 min room temperature, 4 °C overnight, filtered, not dried, listed as 4w-ac-w): Form A
Resulting Crystal Form ([2]; _w: wet portion after crystallization, before slurry in acetone/water, listed as 4w): Form A

CN(C)CCc1c[nH]c2ccc(C[C@H]3COC(=O)N3)cc12 [Form H]
polymorphic stability (conversion to Form A) [3]: do not convert to Form A
Crystal Form after pressing [1]: Form H
transformation to other crystal form on pressing [1]: not transform to other crystal form

CN(C)CCc1c[nH]c2ccc(C[C@H]3COC(=O)N3)cc12 [Form M]
Crystal Form after pressing [1]: Form M
transformation to other crystal form on pressing [1]: not transform to other crystal form

CN(C)CCc1c[nH]c2ccc(C[C@H]3COC(=O)N3)cc12 [Sample 1]
Resulting Crystal Form ([2]; _d-ac-d: dried sample slurried in acetone:water (20:80), then dried in vacuum oven 60-70 °C overnight): Form A
Resulting Crystal Form ([2]; _w-ac-w: wet sample slurried in 10 v/w acetone:water (20:80), 30 min room temperature, 4 °C overnight, filtered, not dried, listed as 1w-ac-w): Form A
Resulting Crystal Form ([2]; _w: wet portion after crystallization, before slurry in acetone/water, listed as 1w): Form A

CN(C)CCc1c[nH]c2ccc(C[C@H]3COC(=O)N3)cc12 [Form D]
polymorphic stability (conversion to Form A) [3]: do not convert to Form A
Crystal Form after pressing [1]: Form D
transformation to other crystal form on pressing [1]: not transform to other crystal form

CN(C)CCc1c[nH]c2ccc(C[C@H]3COC(=O)N3)cc12 [Form L]
Crystal Form after pressing [1]: Form L
transformation to other crystal form on pressing [1]: not transform to other crystal form
Crystal form after heating ([4]; heating temp. 90 °C): A +

CN(C)CCc1c[nH]c2ccc(C[C@H]3COC(=O)N3)cc12 [Sample 6]
Resulting Crystal Form ([2]; _w-ac-w: wet sample slurried in 10 v/w acetone:water (20:80), 30 min room temperature, 4 °C overnight, filtered, not dried, listed as 6w-ac-w): Form A
Resulting Crystal Form ([2]; _w: wet portion after crystallization, before slurry in acetone/water, listed as 6w): Form S

CN(C)CCc1c[nH]c2ccc(C[C@H]3COC(=O)N3)cc12 [Form I]
polymorphic stability (conversion to Form A) [3]: do not convert to Form A
Crystal Form after pressing [1]: Form I
transformation to other crystal form on pressing [1]: not transform to other crystal form
XRD sample (form after treatment) [5, 6]: Form A
XRD sample (form after treatment) [5, 7]: Form A
XRD sample (form after treatment) [5, 8]: Form K
XRD sample (form after treatment) [5, 9]: Form A
XRD sample (form after treatment) [5, 10]: Form D
XRD sample (form after treatment) [5, 11]: Form A

CN(C)CCc1c[nH]c2ccc(C[C@H]3COC(=O)N3)cc12 [Form O]
Crystal Form after pressing [1]: Form O
transformation to other crystal form on pressing [1]: not transform to other crystal form

CN(C)CCc1c[nH]c2ccc(C[C@H]3COC(=O)N3)cc12 [Sample 7]
Resulting Crystal Form ([2]; _w-ac-w: wet sample slurried in 10 v/w acetone:water (20:80), 30 min room temperature, 4 °C overnight, filtered, not dried, listed as 7w-ac-w): Form K + ˜30% A
Resulting Crystal Form ([2]; _w: wet portion after crystallization, before slurry in acetone/water, listed as 7w): Form K

CN(C)CCc1c[nH]c2ccc(C[C@H]3COC(=O)N3)cc12 [Form G]
polymorphic stability (conversion to Form A) [3]: do not convert to Form A
Crystal Form after pressing [1]: Form G
transformation to other crystal form on pressing [1]: not transform to other crystal form
XRD sample (form after treatment) [5, 6]: Form A + ˜10% K
XRD sample (form after treatment) [5, 7]: Form A
XRD sample (form after treatment) [5, 8]: Form K
XRD sample (form after treatment) [5, 9]: Form A
XRD sample (form after treatment) [5, 10]: Form D
XRD sample (form after treatment) [5, 11]: Essent.Am D

CN(C)CCc1c[nH]c2ccc(C[C@H]3COC(=O)N3)cc12 [Sample 8]
Resulting Crystal Form ([2]; _w-ac-w: wet sample slurried in 10 v/w acetone:water (20:80), 30 min room temperature, 4 °C overnight, filtered, not dried, listed as 8w-ac-w): Form K + ˜30% A
Resulting Crystal Form ([2]; _w: wet portion after crystallization, before slurry in acetone/water, listed as 8w): Form K

CN(C)CCc1c[nH]c2ccc(C[C@H]3COC(=O)N3)cc12 [Form P]
polymorphic stability (conversion to Form A) [3]: do not convert to Form A
Crystal Form after pressing [1]: Form P
transformation to other crystal form on pressing [1]: not transform to other crystal form

CN(C)CCc1c[nH]c2ccc(C[C@H]3COC(=O)N3)cc12 [Form K]
polymorphic stability (conversion to Form A) [3]: do not convert to Form A
Crystal Form after pressing [1]: Form K
transformation to other crystal form on pressing [1]: not transform to other crystal form
XRD sample (form after treatment) [5, 6]: Form A
XRD sample (form after treatment) [5, 7]: Form A
XRD sample (form after treatment) [5, 8]: Form K
XRD sample (form after treatment) [5, 9]: Form A + ˜10% K
XRD sample (form after treatment) [5, 10]: Form D
XRD sample (form after treatment) [5, 11]: Form A

CN(C)CCc1c[nH]c2ccc(C[C@H]3COC(=O)N3)cc12 [Form T]
Crystal Form after pressing [1]: Form T
transformation to other crystal form on pressing [1]: not transform to other crystal form

CN(C)CCc1c[nH]c2ccc(C[C@H]3COC(=O)N3)cc12 [Form S]
polymorphic stability (conversion to Form A) [3]: do not convert to Form A
Crystal Form after pressing [1]: Form S
transformation to other crystal form on pressing [1]: not transform to other crystal form
XRD sample (form after treatment) [5, 6]: Form A + ˜10% K
XRD sample (form after treatment) [5, 7]: Form A
XRD sample (form after treatment) [5, 8]: Form K
XRD sample (form after treatment) [5, 9]: Form A + ˜10% D
XRD sample (form after treatment) [5, 10]: Form D
XRD sample (form after treatment) [5, 11]: Form A + ˜20% D

CN(C)CCc1c[nH]c2ccc(C[C@H]3COC(=O)N3)cc12 [Sample 3]
Resulting Crystal Form ([2]; _w-ac-w: wet sample slurried in 10 v/w acetone:water (20:80), 30 min room temperature, 4 °C overnight, filtered, not dried, listed as 3w-ac-w): Form A
Resulting Crystal Form ([2]; _w: wet portion after crystallization, before slurry in acetone/water, listed as 3w): Form G

CN(C)CCc1c[nH]c2ccc(C[C@H]3COC(=O)N3)cc12 [Form J]
polymorphic stability (conversion to Form A) [3]: do not convert to Form A
Crystal Form after pressing [1]: Form J
transformation to other crystal form on pressing [1]: not transform to other crystal form

CN(C)CCc1c[nH]c2ccc(C[C@H]3COC(=O)N3)cc12 [Sample 2]
Resulting Crystal Form ([2]; _d-ac-w: dried sample slurried in 10 v/w acetone:water (20:80), 30 min room temperature, 4 °C overnight, filtered, not dried): Form A
Resulting Crystal Form ([2]; _d: portion dried in vacuum oven 60-70 °C overnight, before slurry in acetone/water): Form A
Resulting Crystal Form ([2]; _w-ac-d: wet sample slurried in acetone:water (20:80), then dried in vacuum oven 60-70 °C overnight): Form A
Resulting Crystal Form ([2]; _w-ac-w: wet sample slurried in 10 v/w acetone:water (20:80), 30 min room temperature, 4 °C overnight, filtered, not dried, listed as 2w-ac-w): Form A
Resulting Crystal Form ([2]; _w: wet portion after crystallization, before slurry in acetone/water, listed as 2w): Form Q

CN(C)CCc1c[nH]c2ccc(C[C@H]3COC(=O)N3)cc12 [Form R]
XRD sample (form after treatment) [5, 7]: Form A
XRD sample (form after treatment) [5, 8]: Form K
XRD sample (form after treatment) [5, 9]: Form A
XRD sample (form after treatment) [5, 10]: Form D
XRD sample (form after treatment) ([5]; n-Hexane, dried 63 °C under reduced pressure, listed as R): Essent.Am D

CN(C)CCc1c[nH]c2ccc(C[C@H]3COC(=O)N3)cc12 [Form E]
XRD sample (form after treatment) ([5]; Toluene, dried 63 °C under reduced pressure, listed as E): Form K
XRD sample (form after treatment) ([5]; immersed in 10 v/w Water, filtered, sucked ½ hour on Buchner, listed as E): Form A
XRD sample (form after treatment) [5, 10]: Form D
XRD sample (form after treatment) ([5]; n-Hexane, dried 63 °C under reduced pressure, listed as E): Form A + ˜30% D

CN(C)CCc1c[nH]c2ccc(C[C@H]3COC(=O)N3)cc12 [Form Q]
Crystal form after heating ([4]; heating temp. 60 °C): A +

CN(C)CCc1c[nH]c2ccc(C[C@H]3COC(=O)N3)cc12 [Sample 5]
Resulting Crystal Form ([2]; _w-ac-w: wet sample slurried in 10 v/w acetone:water (20:80), 30 min room temperature, 4 °C overnight, filtered, not dried, listed as 5w-ac-w): Form A
Resulting Crystal Form ([2]; _w: wet portion after crystallization, before slurry in acetone/water, listed as 5w): Form D
